Structures can show the parent of a compound that is named as a salt.
Test system: ATF4 pathway
Assay: ATF4 Cell Based Assay (ATF4 reporter assay, NanoLuc luciferase)
Conditions: SH-SY5Y-ATF4-NanoLuc cells challenged with Thapsigargin for 14-18 hours; average of two or more experimental runs; read-out: average ATF4 pathway inhibitory activity (IC50)
Text: The ATF4 reporter assay measures the effect of Thapsigargin induced cellular stress on ATF4 expression. For this reporter assay, a stable cell line was created by transfecting SH-SY5Y cells with a plasmid containing the NanoLuc® luciferase gene fused to the 5′-UTR of ATF4, under the control of the CMV promoter. The ATF4 5′-UTR contains two open reading frames which mediate the cellular stress-dependent translation of the reporter gene. Clones stably expressing the reporter construct were isolated and selected based on the luminescence response to thapsigargin and inhibition of this signal by test compounds. Briefly, SH-SY5Y-ATF4-NanoLuc cells were challenged with Thapsigargin for 14-18 hours to determine the stress effect with or without test compounds.
Cells were propagated in growth media consisting of 90% DMEM F12 (InVitrogen #11320-033), 10% Fetal Bovine Serum (Gibco #10438-026), 5 mM Glutamax (Gibco #35050-061), 5 mM Hepes, (Gibco #15630-080), and 0.5 mg/ml Geneticin (Gibco #10131-027). Cells were prepared for the assay by removing all media from cells, washing the plated cells with phosphate buffered saline, and detached by adding a solution comprised of 10% Tryple express solution (InVitrogen12604-021) and 90% enzyme-free cell dissociation buffer HANKS base (Gibco 13150-016). The trypsin was deactivated by adding assay media comprised of 90% phenol-red free DMEM F12 (InVitrogen, 11039), 10% Fetal Bovine Serum (Gibco #10438-026), (5 mM Glutamax (Gibco #35050-061), 5 mM Hepes, (Gibco #15630-080), and 0.5 mg/ml Geneticin (Gibco #10131-027). Suspended cells were spun down at 300 g for 5 min, the supernatant was removed and the cell pellet was suspended in warm media (30-37° C.) comprised as above but without 10% Fetal Bovine Serum to a concentration of 1e6 cells/ml.
Assay plates were prepared by adding 250 nL of compound stock solution in 100% DMSO to each well, followed by dispensing 20 microliters/well cell suspension to deliver 15-20 k cell/well. Cells were incubated for 1 hour at 37° C. […]
The measurement of luciferase produced by the ATF4 constructs was measured as follows. Aliquots of the Nano-Glo reagent (Nano-Glo® Luciferase Assay Substrate, Promega, N113, Nano-Glo® Luciferase Assay Buffer, Promega, N112 (parts of Nano-Glo® Luciferase Assay System, N1150) were brought to room temperature, the substrate and buffer were mixed according to manufacturer's instructions. The cell plates were equilibrated to room temperature. 25 microliters/well of the mixed Nano-Glo reagent were dispensed into assay wells and pulse spun to settle contents and the plate was sealed with film. The plates were incubated at room temperature for 1 hour before detecting luminescence on an EnVision® plate reader.

IC50 | SMILES
6.32 µM | Cc1ccc(OCC(=O)NC23CC(NC(=O)COC4(C)CC4)(C2)C3)cc1 [Example 20, 2-(1-methylcyclopropoxy)-N-(3-(2-(p-tolyloxy)acetamido)bicyclo[1.1.1]pentan-1-yl)acetamide]
4.76 µM | O=C(COc1ccc(Cl)cc1)NC12CC(NC(=O)C3CCCO3)(C1)C2 (stereo not shown) [Example 32, N-(3-(2-(4-chlorophenoxy)acetamido)bicyclo[1.1.1]pentan-1-yl)tetrahydrofuranyl-2-carboxamide]
3.27 µM | O=C(COc1ccc(Cl)cc1)NC12CC(NC(=O)C3CCC3)(C1)C2 [Example 34, N-(3-(2-(4-chlorophenoxy)acetamido)bicyclo[1.1.1]pentan-1-yl)cyclobutanecarboxamide]
3.36 µM | O=C(COc1ccc(Cl)cc1)NC12CC(NC(=O)C3CCCN3)(C1)C2 (stereo not shown) [Example 53, N-(3-(2-(4-chlorophenoxy)acetamido)bicyclo[1.1.1]pentan-1-yl)pyrrolidinyl-2-carboxamide hydrochloride]
